Reference: article PMC9963675 (Proceedings of the National Academy of Sciences of the …, 2023)

Tests used:
[1] = system: WT C57Bl6/N mice; assay: open field locomotor activity time-course in mice; assay type: in vivo; conditions: for duration of locomotor / psychomotor effects: open field time-course, i.p.; for potency, cumulative distance traveled over 60 min post i.p. injection: compared with MPH, cocaine, R-αPVP, R-MDPV and R-pyrovalerone
[2] = biological target: T1, DAT (Homo sapiens, UniProt Q01959); assay type: binding; conditions: DAT membranes
[3] = biological target: T1, DAT; assay: saturation of [3H]DA uptake in presence of inhibitor; assay type: cell-based; conditions: 1 min uptake; cocaine and R-αPVP 250, 500, 1,000 nM; S-αPVP 5, 10, 20 nM
[4] = biological target: T1, DAT; assay: electrophysiological examination of DAT-mediated currents; assay type: cell-based; conditions: HEK293 cells expressing DAT, whole-cell

T1 sequence (Q01959 whole entry): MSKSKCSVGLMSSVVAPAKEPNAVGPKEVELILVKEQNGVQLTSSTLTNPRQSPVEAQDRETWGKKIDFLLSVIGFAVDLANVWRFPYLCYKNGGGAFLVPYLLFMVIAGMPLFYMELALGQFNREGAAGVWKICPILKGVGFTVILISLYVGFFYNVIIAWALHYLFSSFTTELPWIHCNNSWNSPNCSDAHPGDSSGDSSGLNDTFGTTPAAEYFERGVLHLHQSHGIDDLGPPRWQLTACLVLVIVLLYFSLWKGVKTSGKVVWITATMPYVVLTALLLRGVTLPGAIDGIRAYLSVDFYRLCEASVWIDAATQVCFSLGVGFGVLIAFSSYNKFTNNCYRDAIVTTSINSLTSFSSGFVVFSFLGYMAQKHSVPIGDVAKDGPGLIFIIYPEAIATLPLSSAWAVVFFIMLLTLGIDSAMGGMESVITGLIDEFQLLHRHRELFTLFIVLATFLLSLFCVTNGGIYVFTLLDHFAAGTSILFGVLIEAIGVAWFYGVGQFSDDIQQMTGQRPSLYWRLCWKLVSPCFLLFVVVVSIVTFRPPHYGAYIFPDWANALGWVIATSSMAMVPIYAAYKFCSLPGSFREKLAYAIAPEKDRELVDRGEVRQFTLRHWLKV

| Structure (SMILES) | duration of locomotor / psychomotor effects [1] | other results |
| --- | --- | --- |
| COC(=O)C(c1ccccc1)C1CCCCN1 (stereo not drawn) [MPH, methylphenidate] | much shorter duration of locomotor effects | – |
| CCCC(C(=O)c1ccc2c(c1)OCO2)N1CCCC1 (stereo not drawn) [R-MDPV, 3,4-methylenedioxypyrovalerone] | much shorter duration of locomotor effects | – |
| CCC[C@H](C(=O)c1ccc(C)cc1)N1CCCC1 [R-pyrovalerone, pyrovalerone] | much shorter duration of locomotor effects | – |
| CCCC(C(=O)c1ccc2c(c1)OCO2)N1CCCC1 (stereo not drawn) [S-MDPV, 3,4-methylenedioxypyrovalerone] | prolonged psychomotor effects | potency, cumulative distance traveled over 60 min post i.p. injection [1]: at least tenfold more potent |
| CCC[C@@H](C(=O)c1ccc(C)cc1)N1CCCC1 [S-pyrovalerone, pyrovalerone] | prolonged psychomotor effects | potency, cumulative distance traveled over 60 min post i.p. injection [1]: at least tenfold more potent |
| COC(=O)[C@H]1[C@@H](OC(=O)c2ccccc2)C[C@@H]2CC[C@H]1N2C [cocaine] | much shorter duration of locomotor effects | effect on dissociation rate of [3H]WIN35428 [2]: not affected; effect on Km of DA uptake [3]: increases Km in dose-dependent manner; effect on Vmax of DA uptake [3]: does not decrease Vmax |
| NCCc1ccc(O)c(O)c1 [dopamine] | – | DAT-mediated inward currents (substrate activity) [4]: robust inward currents |
